Earlier results, collected in paper PMC2862725 (Molecular cancer therapeutics, 2009).
Where two headings read alike, the source gives them in different places.

Legend:
[1] = vIII mutant tumor group; set equal to single-dose PK/PD model ref 9
[2] = n = 5, two patients with malignant gliomas
[3] = wild-type tumor group; set equal to single-dose PK/PD model ref 9

- Vc volume of distribution of the central compartment [1]: 103.8 mL
- gefitinib brain tumor concentration, mean [2]: 9.4 ± 9.3 µg/g
- Vc volume of distribution of the central compartment [3]: 75.0 mL
Structure (SMILES): COc1cc2ncnc(Nc3ccc(F)c(Cl)c3)c2cc1OCCCN1CCOCC1 [gefitinib, Gefitinib]
